# Measurements taken from ChEMBL document CHEMBL1201862, “PubChem BioAssay data set” (2004).
#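 Briefly, cells in 96-well plates were exposed to five compound concentrations for 48 h, and endpoints were estimated by linear interpolation. The concentration for 50% growth inhibition is given as GI50.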 The source made the active and inactive calls. No stated cut-off is given here; in the data, active = GI50 up to about 1.1 µM and inactive = higher.
# Experiments:
# Assay in all cases: NCI-60 cell line screen, 48 h
# [1] = test system: SK-OV-3
# [2] = test system: NCI-H23
# [3] = test system: TK-10
# [4] = test system: OVCAR-5
# [5] = test system: SF-295
# [6] = test system: NCI-H522
# [7] = test system: MDA-MB-435
# [8] = test system: OVCAR-8
# [9] = test system: UO-31
# [10] = test system: SW-620
# [11] = test system: SK-MEL-2
# [12] = test system: OVCAR-3
# [13] = test system: MCF7
# [14] = test system: SK-MEL-28
# [15] = test system: SK-MEL-5
# [16] = test system: Malme-3M
# [17] = test system: SF-268
# [18] = test system: SR
# [19] = test system: HCT-116
# [20] = test system: Hs-578T
Structure (SMILES),GI50 [1],GI50 [2],GI50 [3],GI50 [4],GI50 [5],GI50 [6],GI50 [7],GI50 [8],GI50 [9],GI50 [10],GI50 [11],GI50 [12],GI50 [13],GI50 [14],GI50 [15],GI50 [16],GI50 [17],GI50 [18],GI50 [19],GI50 [20]
COc1ccc2oc(=N)c(C(=O)NCc3ccccc3)cc2c1,20.3 µM (inactive),18.1 µM (inactive),22.6 µM (inactive),43.6 µM (inactive),24.7 µM (inactive),19.5 µM (inactive),14.5 µM (inactive),16.7 µM (inactive),46.6 µM (inactive),19 µM (inactive),18.6 µM (inactive),18.8 µM (inactive),24 µM (inactive),26.2 µM (inactive),27.9 µM (inactive),15.5 µM (inactive),18.8 µM (inactive),54.8 µM (inactive),30.1 µM (inactive),15.8 µM (inactive)
N#Cc1c(-c2ccccc2)c(/N=N/c2ccc(F)cc2)c(=O)n2c1[nH]c1ccccc12,4.86 µM (inactive),5.28 µM (inactive),5.57 µM (inactive),5.94 µM (inactive),5.25 µM (inactive),2.18 µM (inactive),4.7 µM (inactive),2.34 µM (inactive),2.97 µM (inactive),4.28 µM (inactive),18.2 µM (inactive),2.14 µM (inactive),4.51 µM (inactive),8.39 µM (inactive),1.53 µM (inactive),7.6 µM (inactive),6.43 µM (inactive),3.81 µM (inactive),2.03 µM (inactive),4.43 µM (inactive)
COC(=O)CNC(=O)CCC(C)[C@H]1CCC2C3C(C[C@H](OC(C)=O)[C@@]21C)[C@@]1(C)CCC2(C[C@H]1C[C@H]3OC(C)=O)OOC1(CC[C@]3(C)C4C[C@H](OC(C)=O)[C@@]5(C)C(CC[C@@H]5C(C)CCC(=O)NCC(=O)OC)C4[C@H](OC(C)=O)C[C@@H]3C1)OO2 (stereo not given in full),5.37 µM (inactive),1.03 µM (active),1.19 µM (inactive),2.03 µM (inactive),5.65 µM (inactive),0.991 µM (active),2.3 µM (inactive),0.746 µM (active),0.828 µM (active),1.71 µM (inactive),0.764 µM (active),3.03 µM (inactive),2.71 µM (inactive),1.61 µM (inactive),0.94 µM (active),0.782 µM (active),2.19 µM (inactive),0.381 µM (active),1.99 µM (inactive),0.938 µM (active)
C=CC(c1ccccc1)[C@@]1(OC(C)=O)C(=O)C(=O)OC1C1COC(C)(C)O1 (stereo not given in full),18.1 µM (inactive),18.2 µM (inactive),14.1 µM (inactive),18.5 µM (inactive),16.7 µM (inactive),3.77 µM (inactive),13.9 µM (inactive),13.1 µM (inactive),11.5 µM (inactive),8.13 µM (inactive),16.4 µM (inactive),10.7 µM (inactive),5.68 µM (inactive),8.32 µM (inactive),15.9 µM (inactive),15.2 µM (inactive),24.2 µM (inactive),2.43 µM (inactive),11.1 µM (inactive),22.9 µM (inactive)
Nc1nc(O)c2ncn(C3C=CC(CO)C3)c2n1 (stereo not given),> 100 µM (inactive),> 100 µM (inactive),> 100 µM (inactive),> 100 µM (inactive),> 100 µM (inactive),> 100 µM (inactive),> 100 µM (inactive),> 100 µM (inactive),> 100 µM (inactive),> 100 µM (inactive),> 100 µM (inactive),> 100 µM (inactive),> 100 µM (inactive),> 100 µM (inactive),> 100 µM (inactive),> 100 µM (inactive),> 100 µM (inactive),> 100 µM (inactive),> 100 µM (inactive),> 100 µM (inactive)
O=C(N/N=C\c1ccc([N+](=O)[O-])cc1)Nc1cccc2ccccc12,4.5 µM (inactive),18.8 µM (inactive),14.5 µM (inactive),> 100 µM (inactive),7.28 µM (inactive),20.4 µM (inactive),> 100 µM (inactive),6.03 µM (inactive),24.5 µM (inactive),> 100 µM (inactive),5.55 µM (inactive),> 37.8 µM (inactive),> 43.7 µM (inactive),> 100 µM (inactive),31.3 µM (inactive),27.7 µM (inactive),4.88 µM (inactive),> 55.1 µM (inactive),28.5 µM (inactive),3.99 µM (inactive)
CCCCCCCCCCCCCCCCCCNC(=O)OCC(CNS(=O)(=O)CCC[n+]1cccc2ccccc21)COC (stereo not given),2.49 µM (inactive),1.16 µM (inactive),3.4 µM (inactive),2.13 µM (inactive),2.6 µM (inactive),1.02 µM (active),2.1 µM (inactive),2.07 µM (inactive),27.9 µM (inactive),2.16 µM (inactive),1.9 µM (inactive),3.99 µM (inactive),1.55 µM (inactive),4.74 µM (inactive),2.06 µM (inactive),3.74 µM (inactive),2.34 µM (inactive),2.04 µM (inactive),1.35 µM (inactive),2 µM (inactive)
CNn1c(-c2ccccc2)n[nH]c1=O,> 100 µM (inactive),> 100 µM (inactive),> 100 µM (inactive),> 100 µM (inactive),> 100 µM (inactive),> 100 µM (inactive),> 100 µM (inactive),> 100 µM (inactive),> 100 µM (inactive),> 100 µM (inactive),> 100 µM (inactive),> 100 µM (inactive),> 100 µM (inactive),> 100 µM (inactive),> 100 µM (inactive),> 100 µM (inactive),> 100 µM (inactive),> 100 µM (inactive),> 100 µM (inactive),> 100 µM (inactive)
C=CCN1C(=O)/C(=C/c2ccco2)N=C1SC/C=C/C,> 100 µM (inactive),50.9 µM (inactive),> 100 µM (inactive),> 100 µM (inactive),40.4 µM (inactive),34 µM (inactive),31.8 µM (inactive),24.1 µM (inactive),73.5 µM (inactive),43.9 µM (inactive),29.4 µM (inactive),35.6 µM (inactive),18.6 µM (inactive),46.1 µM (inactive),20.6 µM (inactive),44.4 µM (inactive),49.2 µM (inactive),21.6 µM (inactive),27.5 µM (inactive),53.8 µM (inactive)
Nc1nc2ccc(Sc3ccc4nc(N)[nH]c(=O)c4c3)cc2c(=O)[nH]1,> 100 µM (inactive),> 100 µM (inactive),> 100 µM (inactive),> 100 µM (inactive),59.2 µM (inactive),> 100 µM (inactive),> 100 µM (inactive),> 100 µM (inactive),> 100 µM (inactive),> 100 µM (inactive),> 100 µM (inactive),> 100 µM (inactive),> 100 µM (inactive),> 100 µM (inactive),> 100 µM (inactive),> 100 µM (inactive),> 100 µM (inactive),> 100 µM (inactive),> 100 µM (inactive),> 100 µM (inactive)
c1c[nH]c(C23C4C5C6C4C2C6C53)n1 (stereo not given),> 100 µM (inactive),> 100 µM (inactive),> 100 µM (inactive),> 100 µM (inactive),> 100 µM (inactive),> 100 µM (inactive),> 100 µM (inactive),> 100 µM (inactive),> 100 µM (inactive),> 100 µM (inactive),> 100 µM (inactive),> 100 µM (inactive),> 100 µM (inactive),> 100 µM (inactive),> 100 µM (inactive),> 100 µM (inactive),> 100 µM (inactive),> 100 µM (inactive),> 100 µM (inactive),> 100 µM (inactive)
COc1cc(/C=C/C=C2\CC/C(=C\C=C\c3ccc(O)c(OC)c3)C2=O)ccc1O,> 22.2 µM (inactive),> 73.1 µM (inactive),> 100 µM (inactive),> 100 µM (inactive),> 100 µM (inactive),1.45 µM (inactive),> 52.4 µM (inactive),> 100 µM (inactive),> 82 µM (inactive),> 100 µM (inactive),> 100 µM (inactive),> 100 µM (inactive),> 100 µM (inactive),> 100 µM (inactive),> 87.9 µM (inactive),> 85.7 µM (inactive),> 100 µM (inactive),2.53 µM (inactive),> 100 µM (inactive),> 100 µM (inactive)
CC[C@H]1CN(C)[C@H]2Cc3c([nH]c4ccccc34)C(=O)C[C@H]1C2C(=O)OC (stereo not given in full),> 100 µM (inactive),> 100 µM (inactive),> 100 µM (inactive),> 100 µM (inactive),> 100 µM (inactive),> 100 µM (inactive),> 100 µM (inactive),> 100 µM (inactive),> 100 µM (inactive),> 100 µM (inactive),> 100 µM (inactive),> 100 µM (inactive),> 100 µM (inactive),> 100 µM (inactive),> 100 µM (inactive),> 100 µM (inactive),> 100 µM (inactive),> 100 µM (inactive),> 100 µM (inactive),> 100 µM (inactive)
